Laboratory results taken from patent US5145951A, “Peptides retroviral protease inhibitors comprising 2-amino-2-methylpropionic acid” (priority 1990, dated 1992).
Starred links: 1 amine or outer side, 2 acyl side, 3 side chain; linkers in the order of their positions; H or OH if unused. Non-standard residues stand in square brackets, D forms with d. Residues, ends and D or L forms follow the SMILES beside them. *: point of attachment. X1 = CC(C)C(C[C@H](O)[C@H](CC1CCCCC1)N[*:1])C(=O)[*:2]; NHCH2(2-pyridyl) = c1ccc(CN*)nc1; Boc = CC(C)(C)OC(=O)*; Aib = CC(C)(N)C(=O)O

Target: T1, purified HIV protease (Human immunodeficiency virus type 1 group M subtype B, UniProt P04585)
T1 construct: purified HIV protease was incubated with synthetic peptide
Assay: HIV-specific protease enzyme test (RP-HPLC analysis of cleavage of a synthetic Gag peptide)
Format: biochemical
Details: substance concentration causing 50% inhibition of protease activity; synthetic peptide substrate imitating Gag cleavage site
Description: The results of the examples shown below were determined by the HIV test system described in the following references [compare Hansen, J., Billich, S., Schulze, T., Sukro, S. and Molling, K. (1988), EMBO Journal, Vol. 7, No. 6, pp. 1785-1791]: purified HIV protease was incubated with synthetic peptide which imitates a cleavage site in the Gag precursor protein and represents an in vivo cleavage site of the HIV protease. The resulting cleavage products of the synthetic peptide were analyzed by means of Reverse Phase High Performance Liquid Chromatography (RP-HPLC). The IC50 values indicated relate to the substance concentration which causes a 50% inhibition of the protease activity under the abovementioned test conditions.

Row | SMILES | IC50
1 | CC[C@H](C)[C@H](NC(=O)C(C[C@H](O)[C@H](CC1CCCCC1)NC(=O)[C@H](CC(N)=O)NC(=O)C(C)(C)NC(=O)OC(C)(C)C)C(C)C)C(=O)NCc1ccccn1 (stereo partly drawn) [Example I, Nα-{Nδ-{Nα-{1-[2-(1,1-dimethylethoxycarbonyl)amino-2-methyl]propanoyl}-(S)-asparaginyl}-1-[5-(S)-amino-6-cyclohexyl-4-(S)-hydroxy-2-(1-methyl)ethyl]-hexanoyl}-(S)-isoleucinyl-2-pyridylmethylamide] | 500 nM
2 | CC[C@H](C)[C@H](NC(=O)C(C[C@H](O)[C@H](CC1CCCCC1)NC(=O)C(C)(C)NC(=O)OC(C)(C)C)C(C)C)C(=O)NCc1ccccn1 (stereo partly drawn) [Example IV, Nα-{Nδ-{1-[2-(1,1-dimethylethoxycarbonyl)amino-2-methyl]propanoyl}-1-[5-(S)-amino-6-cyclohexyl-4-(S)-hydroxy-2-(1-methyl)ethoyl]hexanoyl}-(S)-isoleucinyl-2-pyridylmethylamide] | 100 nM
3 | CC[C@H](C)[C@H](NC(=O)C(C[C@H](O)[C@H](CC1CCCCC1)NC(=O)[C@H](CC(N)=O)NC(=O)[C@H](Cc1ccccc1)NC(=O)C(C)(C)NC(=O)OC(C)(C)C)C(C)C)C(=O)NCc1ccccn1 (some centres unmarked) [II] (Boc-[Aib]FN[X1]I-{NHCH2(2-pyridyl)}) | 50 nM
4 | CC[C@H](C)[C@H](NC(=O)C(C[C@H](O)[C@H](CC1CCCCC1)NC(=O)[C@H](CC(N)=O)NC(=O)[C@H](Cc1ccccc1)NC(=O)[C@H](CO)NC(=O)C(C)(C)NC(=O)OC(C)(C)C)C(C)C)C(=O)NCc1ccccn1 (some centres unmarked) [III] (Boc-[Aib]SFN[X1]I-{NHCH2(2-pyridyl)}) | 5 nM
5 | CC[C@H](C)[C@H](NC(=O)C(C[C@H](O)[C@H](CC1CCCCC1)NC(=O)[C@@H](NC(=O)C(C)(C)NC(=O)OC(C)(C)C)C(C)C)C(C)C)C(=O)NCc1ccccn1 (some centres unmarked) [V] | 50 nM
